Source: patent publication US9023789B2, “Amylin analogs and pharmaceutical compositions thereof” (Novo Nordisk A/S, priority 2012, dated 2015)
Numbered stars: 1 amine (or outer) side, 2 acyl side, 3 side chain; on linkers, the order of the positions; unused ones are H or OH. Bridge positions count the residues as written; N and C are the ends. Side chains are listed from the residue outwards. Peptide text beside a SMILES is read from it. * marks the point of attachment. C20 diacid = O=C(O)CCCCCCCCCCCCCCCCCCC(=O)*; γGlu = O=C(O)[C@H](CCC(=O)[*:2])N[*:1]; AEEA = NCCOCCOCC(=O)O

Key:
[1] = target: T1, human amylin 3(a) receptor (human calcitonin receptor + RAMP-3) in BHK570 cells (Homo sapiens, UniProt O60896+P30988); assay: ASSAY (II)a functional assay, human amylin receptor (CRE luciferase); type: cell-based; conditions: for EC50: human amylin receptor functional potency, assay (II), read-out: hAmylin-R funct. EC50
T1 construct: expressed in transfected cells
Method in brief: (§1)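 BHK cells stably carrying a CRE-luciferase reporter plus calcitonin receptor, or calcitonin receptor with RAMP-3 for the amylin 3(a) receptor, were seeded and kept overnight at 37° C. Compounds were added in assay medium with 10% FBS and 10 mM Hepes, pH 7.4, for 3 hours at 37° C, then luminescence was counted.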

[2] = target: T2, human calcitonin (a) receptor in BHK570 cells (Homo sapiens, UniProt P30988); assay: ASSAY (II)a functional assay, human calcitonin receptor (CRE luciferase); type: cell-based; conditions: read-out: hCTR funct. EC50
T2 construct: expressed in transfected cells
T2 sequence (P30988 25-474): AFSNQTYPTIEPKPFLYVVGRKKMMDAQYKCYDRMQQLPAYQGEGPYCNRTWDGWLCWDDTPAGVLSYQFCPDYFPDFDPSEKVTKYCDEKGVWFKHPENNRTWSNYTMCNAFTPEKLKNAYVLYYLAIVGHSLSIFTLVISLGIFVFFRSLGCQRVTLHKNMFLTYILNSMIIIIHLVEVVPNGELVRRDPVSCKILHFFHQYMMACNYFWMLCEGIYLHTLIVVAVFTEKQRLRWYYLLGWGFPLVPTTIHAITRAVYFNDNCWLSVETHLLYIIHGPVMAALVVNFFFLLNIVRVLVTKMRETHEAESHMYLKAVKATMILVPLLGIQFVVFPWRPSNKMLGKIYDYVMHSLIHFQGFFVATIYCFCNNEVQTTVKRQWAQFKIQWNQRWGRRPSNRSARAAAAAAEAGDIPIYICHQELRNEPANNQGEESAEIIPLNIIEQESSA
Method in brief: as §1

[3] = target: T3, human amylin receptor (membranes from Amylin 3(a)/CRE-luc cells) (Homo sapiens, UniProt O60896+P30988); assay: ASSAY (V) binding to the human amylin receptor (SPA, 125I-rat amylin); conditions: for IC50: Table 4, read-out: hAmylin-R bind IC50;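 for all read-outs here: competition binding of cell membranes (35 ng/µL) mixed with SPA beads in 384-well plates at 40 µL total volume, read by scintillation counting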
T3 construct: expressed in transfected cells
T3 sequence (P30988 25-474): T2 sequence (P30988 25-474)
T3 sequence (O60896 24-148 partner): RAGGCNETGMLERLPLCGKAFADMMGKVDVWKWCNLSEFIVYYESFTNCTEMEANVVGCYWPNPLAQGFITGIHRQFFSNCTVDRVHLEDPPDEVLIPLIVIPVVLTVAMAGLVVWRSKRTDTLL

[4] = target: T4, human calcitonin receptor (Homo sapiens, UniProt P30988); assay: ASSAY (VII) binding to the human calcitonin receptor (SPA, 125I-Calcitonin); conditions: read-out: hCTR bind IC50;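 note: cell membranes (35 ng/µL) combined with SPA beads in 40 µL of pH 7.4 Hepes buffer, 384-well format, signal counted on a TopCounter instrument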
T4 construct: expressed in transfected cells
T4 sequence (P30988 25-474): T2 sequence (P30988 25-474)

[5] = hCTR funct. EC50 divided by hAmylin-R funct. EC50
[6] = hCTR funct. EC50 over hAmylin-R funct. EC50
[7] = human functional selectivity: hCTR funct. EC50 / hAmylin-R funct. EC50
[8] = Table 5, selectivity, hCTR bind IC50 / hAmylin-R bind IC50
[9] = Table 7, human binding selectivity, included for comparison
[10] = Table 7a (preferred compounds), human binding selectivity, included for comparison
[11] = Table 5a, selectivity, hCTR bind IC50 / hAmylin-R bind IC50
[12] = Table 5b, selectivity, hCTR bind IC50 / hAmylin-R bind IC50
[13] = Table 5c, selectivity, hCTR bind IC50 / hAmylin-R bind IC50
[14] = ratio of human calcitonin receptor binding IC50 to human amylin receptor binding IC50

SMILES	Ratio hCT/hAmylin funct. ([1]; hCTR funct. EC50 / hAmylin-R funct. EC50)	Ratio hCT/hAmylin funct. [1, 5]	Ratio hCT/hAmylin funct. [1, 6]	EC50 [1]	Ratio hCT/hAmylin funct. [1, 7]	EC50 [2]	IC50 [3]	Ratio hCT/hAmylin binding [3, 8]	Ratio hCT/hAmylin binding [3, 9]	Ratio hCT/hAmylin binding [3, 10]	IC50 [4]	Ratio hCT/hAmylin binding [3, 11]	Ratio hCT/hAmylin binding [3, 12]	Ratio hCT/hAmylin binding [3, 13]	Ratio hCT/hAmylin binding [3, 14]
CC[C@H](C)[C@H](NC(=O)[C@H](C)NC(=O)CNC(=O)[C@H](Cc1ccccc1)NC(=O)[C@H](CC(N)=O)NC(=O)[C@@H]1CCCN1C(=O)[C@H](CO)NC(=O)[C@H](CO)NC(=O)[C@H](Cc1c[nH]cn1)NC(=O)[C@H](CCCNC(=N)N)NC(=O)[C@H](CC(C)C)NC(=O)[C@H](Cc1ccccc1)NC(=O)[C@H](CCC(=O)O)NC(=O)[C@H](C)NC(=O)[C@H](CC(C)C)NC(=O)[C@H](CCCNC(=N)N)NC(=O)[C@H](CCC(N)=O)NC(=O)[C@@H](NC(=O)[C@H](C)NC(=O)[C@@H]1CSSC[C@H](NC(=O)[C@H](CCCCN)NC(=O)CC[C@H](NC(=O)CCCCCCCCCCCCCCCCCCC(=O)O)C(=O)O)C(=O)N[C@@H](CC(N)=O)C(=O)N[C@@H]([C@@H](C)O)C(=O)N[C@@H](C)C(=O)N[C@@H]([C@@H](C)O)C(=O)N1)[C@@H](C)O)C(=O)N1CCC[C@H]1C(=O)N[C@@H](CO)C(=O)N1CCC[C@H]1C(=O)N[C@H](C(=O)N[C@@H](CC(N)=O)C(=O)N[C@H](C(=O)NCC(=O)N[C@@H](CO)C(=O)N[C@@H](CC(N)=O)C(=O)N[C@H](C(=O)N[C@@H](Cc1ccc(O)cc1)C(N)=O)[C@@H](C)O)C(C)C)[C@@H](C)O [Example 37] ({C20 diacid-γGlu}-KCNTATCATQRLAEFLRHSSPNFGAIPSPTNVGSNTY-NH2; disulfide 2-7 (inferred))	4.0	4.0	4.0	0.092 nM	4.0	0.372 nM	0.97 nM	2.3	2.3	2.3	2.18 nM				
CC[C@H](C)[C@H](NC(=O)[C@H](C)NC(=O)CNC(=O)[C@H](Cc1ccccc1)NC(=O)[C@H](CC(N)=O)NC(=O)[C@@H]1CCCN1C(=O)[C@H](CO)NC(=O)[C@H](CO)NC(=O)[C@H](Cc1c[nH]cn1)NC(=O)[C@H](CCCNC(=N)N)NC(=O)[C@H](CC(C)C)NC(=O)[C@H](Cc1ccccc1)NC(=O)[C@H](CC(N)=O)NC(=O)[C@H](C)NC(=O)[C@H](CC(C)C)NC(=O)[C@H](CCCNC(=N)N)NC(=O)[C@H](CCC(N)=O)NC(=O)[C@@H](NC(=O)[C@H](C)NC(=O)[C@@H]1CSSC[C@H](NC(=O)[C@H](CCCCN)NC(=O)CC[C@H](NC(=O)CCCCCCCCCCCCCCCCCCC(=O)O)C(=O)O)C(=O)N[C@@H](CC(N)=O)C(=O)N[C@@H]([C@@H](C)O)C(=O)N[C@@H](C)C(=O)N[C@@H]([C@@H](C)O)C(=O)N1)[C@@H](C)O)C(=O)N1CCC[C@H]1C(=O)N[C@@H](CO)C(=O)N[C@@H](CO)C(=O)N[C@H](C(=O)N[C@@H](CC(N)=O)C(=O)N[C@H](C(=O)NCC(=O)N[C@@H](CCCNC(=N)N)C(=O)N[C@@H](CC(N)=O)C(=O)N[C@H](C(=O)N[C@@H](Cc1ccc(O)cc1)C(N)=O)[C@@H](C)O)C(C)C)[C@@H](C)O [Example 39] ({C20 diacid-γGlu}-KCNTATCATQRLANFLRHSSPNFGAIPSSTNVGRNTY-NH2; disulfide 2-7)		11.6	11.6	0.217 nM	11.6	2.52 nM	0.665 nM	29.0	29.0	29.0	19.3 nM	29.0	29.0	29.0	29.0
CC[C@H](C)[C@H](NC(=O)[C@H](C)NC(=O)CNC(=O)[C@H](Cc1ccccc1)NC(=O)[C@H](CC(N)=O)NC(=O)[C@@H]1CCCN1C(=O)[C@H](CO)NC(=O)[C@H](CO)NC(=O)[C@H](Cc1c[nH]cn1)NC(=O)[C@H](CCCNC(=N)N)NC(=O)[C@H](CC(C)C)NC(=O)[C@H](Cc1ccccc1)NC(=O)[C@H](CC(N)=O)NC(=O)[C@H](C)NC(=O)[C@H](CC(C)C)NC(=O)[C@H](CCCNC(=N)N)NC(=O)[C@H](CCC(N)=O)NC(=O)[C@@H](NC(=O)[C@H](C)NC(=O)[C@@H]1CSSC[C@H](NC(=O)[C@@H](N)CCCCNC(=O)COCCOCCNC(=O)CC[C@H](NC(=O)CCCCCCCCCCCCCCCCCCC(=O)O)C(=O)O)C(=O)N[C@@H](CC(N)=O)C(=O)N[C@@H]([C@@H](C)O)C(=O)N[C@@H](C)C(=O)N[C@@H]([C@@H](C)O)C(=O)N1)[C@@H](C)O)C(=O)N1CCC[C@H]1C(=O)N[C@@H](CO)C(=O)N[C@@H](CO)C(=O)N[C@H](C(=O)N1CCC[C@H]1C(=O)N[C@H](C(=O)NCC(=O)N[C@@H](CO)C(=O)N[C@@H](Cc1c[nH]cn1)C(=O)N[C@H](C(=O)N[C@@H](Cc1ccc(O)cc1)C(N)=O)[C@@H](C)O)C(C)C)[C@@H](C)O [Example 57] (H-K([AEEA-γGlu-C20 diacid])CNTATCATQRLANFLRHSSPNFGAIPSSTPVGSHTY-NH2; disulfide 2-7; N-terminus assumed)		35.0	35.0	0.089 nM	35.0	3.12 nM	0.115 nM	133.0	133.0	133.0	15.3 nM	133.0	133.0	133.0	133.0
CC[C@H](C)[C@H](NC(=O)[C@H](C)NC(=O)CNC(=O)[C@H](Cc1ccccc1)NC(=O)[C@H](CC(N)=O)NC(=O)[C@@H]1CCCN1C(=O)[C@H](CO)NC(=O)[C@H](CO)NC(=O)[C@H](Cc1c[nH]cn1)NC(=O)[C@H](CCCNC(=N)N)NC(=O)[C@H](CC(C)C)NC(=O)[C@H](Cc1ccccc1)NC(=O)[C@H](Cc1c[nH]cn1)NC(=O)[C@H](C)NC(=O)[C@H](CC(C)C)NC(=O)[C@H](CCCNC(=N)N)NC(=O)[C@H](CCC(N)=O)NC(=O)[C@@H](NC(=O)[C@H](C)NC(=O)[C@@H]1CSSC[C@H](NC(=O)[C@@H](N)CCCCNC(=O)CC[C@H](NC(=O)CCCCCCCCCCCCCCCCCCC(=O)O)C(=O)O)C(=O)N[C@@H](CC(N)=O)C(=O)N[C@@H]([C@@H](C)O)C(=O)N[C@@H](C)C(=O)N[C@@H]([C@@H](C)O)C(=O)N1)[C@@H](C)O)C(=O)N1CCC[C@H]1C(=O)N[C@@H](CO)C(=O)N[C@@H](CO)C(=O)N[C@H](C(=O)N1CCC[C@H]1C(=O)N[C@H](C(=O)NCC(=O)N[C@@H](CO)C(=O)N[C@@H](CC(N)=O)C(=O)N[C@H](C(=O)N[C@@H](Cc1ccc(O)cc1)C(N)=O)[C@@H](C)O)C(C)C)[C@@H](C)O [Example 62] (H-K([γGlu-C20 diacid])CNTATCATQRLAHFLRHSSPNFGAIPSSTPVGSNTY-NH2; disulfide 2-7; N-terminus assumed)		12.3	12.3	0.044 nM	12.3	0.539 nM	0.098 nM	63.0	63.0	63.0	6.17 nM	63.0	63.0	63.0	63.0
